The values that follow come from patent publication US20200347043A1, “MODULATORS OF THE INTEGRATED STRESS PATHWAY” (Calico Life Sciences LLC, priority 2019, published 2020).

Molecules are shown by their SMILES.

The experiment has as its system HEK293T cells carrying the ATF4 luciferase reporter. The experiment is described as follows: ATF4-Luc assay (in vitro model of VWMD). Type of experiment: cell-based, human. The note with it: Homo sapiens, HEK-293T, 1 μg/mL tunicamycin, 7 hours, One Glo luminescence. Here is the method:
In order to test exemplary compounds of the invention in a cellular context, a stable VWMD cell line was first constructed. The ATF4 reporter was prepared by fusing the human full-length ATF4 5′-UTR (NCBI Accession No. BC022088.2) in front of the firefly luciferase (FLuc) coding sequence lacking the initiator methionine as described in Sidrauski et al (eLife 2013). The construct was used to produce recombinant retroviruses using standard methods and the resulting viral supernatant was used to transduce HEK293T cells, which were then subsequently selected with puromycin to generate a stable cell line.
HEK293T cells carrying the ATF4 luciferase reporter were plated on polylysine coated 384-well plates (Greiner Bio-one) at 30,000 cells per well. Cells were treated the next day with 1 μg/mL tunicamycin and 200 nM of a compound of Formula (I) for 7 hours. Luminescence was measured using One Glo (Promega) as specified by the manufacturer. Cells were maintained in DMEM with L-glutamine supplemented with 10% heat-inactivated FBS (Gibco) and Antibiotic-Antimycotic solution (Gibco).
Table 4 below summarizes the EC50 data obtained using the ATF4-Luc assay for exemplary compounds of the invention.
As to `O=C(N[C@H]1CC[C@H](C(=O)NCc2ccc(C(F)(F)F)cn2)CC1)[C@H]1C[C@@H](O)c2cc(Cl)ccc2O1` [Compound 105], the 50% effective concentration (EC50) was under 10 nM. On to `O=C1C[C@H](C(=O)NC23CCC(C(=O)NCc4ccc(C(F)(F)F)cn4)(CC2)CC3)Oc2ccc(Cl)cc21` [Compound 106, (2R)-6-chloro-4-oxo-N-[4-({[5-(trifluoromethyl)pyridin-2-yl]methyl}carbamoyl)bicyclo[2.2.2]octan-1-yl]-3,4-dihydro-2H-1-benzopyran-2-carboxamide], for which the concentration giving a half-maximal response (EC50) was in the range of 10 to 50 nM. Next, `O=C(NC12CCC(C(=O)NCc3ccc(C(F)(F)F)cn3)(CC1)CC2)[C@H]1C[C@@H](O)c2cc(Cl)ccc2O1` [Compound 107, (2R,4R)-6-chloro-4-hydroxy-N-[4-({[5-(trifluoromethyl)pyridin-2-yl]methyl}carbamoyl)bicyclo[2.2.2]octan-1-yl]-3,4-dihydro-2H-1-benzopyran-2-carboxamide]: under 10 nM; `O=C1C[C@H](C(=O)NC23CC(c4nnc(COc5ccc(Cl)c(F)c5)o4)(C2)C3)Oc2ccc(Cl)cc21` [Compound 108, (2R)-6-chloro-N-(3-{5-[(4-chloro-3-fluorophenoxy)methyl]-1,3,4-oxadiazol-2-yl}bicyclo[1.1.1]pentan-1-yl)-4-oxo-3,4-dihydro-2H-1-benzopyran-2-carboxamide]: under 10 nM; `O=C1C[C@@H](C(=O)NC23CC(c4nnc(COc5ccc(Cl)c(F)c5)o4)(C2)C3)Oc2ccc(Cl)cc21` [Compound 109, (2S)-6-chloro-N-(3-{5-[(4-chloro-3-fluorophenoxy)methyl]-1,3,4-oxadiazol-2-yl}bicyclo[1.1.1]pentan-1-yl)-4-oxo-3,4-dihydro-2H-1-benzopyran-2-carboxamide]: 10 to 50 nM. As for `O=C(NC12CC(c3nnc(COc4ccc(Cl)c(F)c4)o3)(C1)C2)[C@H]1C[C@@H](O)c2cc(Cl)ccc2O1` [Compound 110, (2R,4R)-6-chloro-N-(3-{5-[(4-chloro-3-fluorophenoxy)methyl]-1,3,4-oxadiazol-2-yl}bicyclo[1.1.1]pentan-1-yl)-4-hydroxy-3,4-dihydro-2H-1-benzopyran-2-carboxamide], the EC50 was under 10 nM. For the compound `O=C(NC12CC(c3nnc(COc4ccc(Cl)c(F)c4)o3)(C1)C2)[C@@H]1C[C@H](O)c2cc(Cl)ccc2O1` [Compound 111, (2S,4S)-6-chloro-N-(3-{5-[(4-chloro-3-fluorophenoxy)methyl]-1,3,4-oxadiazol-2-yl}bicyclo[1.1.1]pentan-1-yl)-4-hydroxy-3,4-dihydro-2H-1-benzopyran-2-carboxamide], the concentration for a half-maximal effect (EC50) lay in the range of 10 to 50 nM.

Regarding `O=C(CO[C@H]1C[C@@H](OC(F)(F)F)C1)NC12CCC(NC(=O)COc3ccc(Cl)c(F)c3)(CC1)[C@@H](O)C2` [Compound 112, 2-(4-chloro-3-fluorophenoxy)-N-[(2S)-2-hydroxy-4-(2-{[(1s,3R)-3-(trifluoromethoxy)cyclobutyl]oxy}acetamido)bicyclo[2.2.2]octan-1-yl]acetamide], the EC50 is under 10 nM.

Take `O=C(CO[C@H]1C[C@@H](OC(F)(F)F)C1)NC12CC(NC(=O)C3CC(=O)c4cc(Cl)ccc4O3)(C1)C2` (stereo partly drawn) [Compound 113, 6-chloro-4-oxo-N-[3-(2-{[(1s,3s)-3-(trifluoromethoxy)cyclobutyl]oxy}acetamido)bicyclo[1.1.1]pentan-1-yl]-3,4-dihydro-2H-1-benzopyran-2-carboxamide]: the EC50 lay in the range of 10 to 50 nM. Under `O=C(CO[C@H]1C[C@@H](OC(F)(F)F)C1)NC12CCC(NC(=O)[C@H]3CC(=O)c4cc(Cl)ccc4O3)(CC1)C[C@@H]2O` [Compound 115, (2R)-6-chloro-N-[(3S)-3-hydroxy-4-(2-{[(1s,3R)-3-(trifluoromethoxy)cyclobutyl]oxy}acetamido)bicyclo[2.2.2]octan-1-yl]-4-oxo-3,4-dihydro-2H-1-benzopyran-2-carboxamide] stands under 10 nM. On to `O=C(COc1ccc(Cl)cc1)NC12CCC(NC(=O)CO[C@H]3C[C@@H](OC(F)(F)F)C3)(CC1)CC2` [Compound 116, 2-(4-chlorophenoxy)-N-[4-(2-{[(1s,3s)-3-(trifluoromethoxy)cyclobutyl]oxy}acetamido)bicyclo[2.2.2]octan-1-yl]acetamide], for which the EC50 is under 10 nM. Next, `O=C(CO[C@H]1C[C@@H](OC(F)(F)F)C1)NC12CCC(NC(=O)[C@H]3C[C@@H](O)c4cc(Cl)ccc4O3)(CC1)C[C@@H]2O` [Compound 117, (2R,4R)-6-chloro-4-hydroxy-N-[(3S)-3-hydroxy-4-(2-{[(1s,3R)-3-(trifluoromethoxy)cyclobutyl]oxy}acetamido)bicyclo[2.2.2]octan-1-yl]-3,4-dihydro-2H-1-benzopyran-2-carboxamide]: under 10 nM; `O=C(COc1ccc(Cl)c(F)c1)NC12CC(NC(=O)[C@H]3C[C@@H](OC(F)(F)F)C3)(C1)C2` [Compound 118, (1s,3s)-N-{3-[2-(4-chloro-3-fluorophenoxy)acetamido]bicyclo[1.1.1]pentan-1-yl}-3-(trifluoromethoxy)cyclobutane-1-carboxamide]: 500 to 2000 nM; `O=C(NC12CC(C(=O)NCc3ccc(C(F)(F)F)cn3)(C1)C2)[C@H]1C[C@@H](O)c2cc(Cl)ccc2O1` [Compound 119, (2R,4R)-6-chloro-4-hydroxy-N-[3-({[5-(trifluoromethyl)pyridin-2-yl]methyl}carbamoyl)bicyclo[1.1.1]pentan-1-yl]-3,4-dihydro-2H-1-benzopyran-2-carboxamide]: 10 to 50 nM. Consider `O=C(COc1ccc(Cl)c(F)c1)N[C@@H]1CC[C@@H](C(=O)N2CC(Oc3ccc(Cl)cc3)C2)OC1` [Compound 120, 2-(4-chloro-3-fluorophenoxy)-N-{(3R,6S)-6-[3-(4-chlorophenoxy)azetidine-1-carbonyl]oxan-3-yl}acetamide], for which the EC50 lay within 10 to 50 nM.

In the case of `O=C(COc1ccc(Cl)c(F)c1)NC12CCC(c3nnc([C@H]4C[C@@H](OC(F)(F)F)C4)o3)(CC1)CC2O` (stereo partly drawn) [Compound 124, 2-(4-chloro-3-fluorophenoxy)-N-(2-hydroxy-4-{5-[(1s,3s)-3-(trifluoromethoxy)cyclobutyl]-1,3,4-oxadiazol-2-yl}bicyclo[2.2.2]octan-1-yl)acetamide], the concentration giving a half-maximal response (EC50) fell in the range of 10 to 50 nM.

For `O=C(N[C@H]1C[C@H]2CC[C@@H](C1)N2CCCOc1ccc(Cl)cc1)[C@H]1C[C@@H](O)c2cc(Cl)ccc2O1` [Compound 125, (2R,4R)-6-chloro-N-{(1R,3r,5S)-8-[3-(4-chlorophenoxy)propyl]-8-azabicyclo[3.2.1]octan-3-yl}-4-hydroxy-3,4-dihydro-2H-1-benzopyran-2-carboxamide], the half-maximal effective concentration (EC50) was in the range of 50 to 250 nM. Under `O=C(NC12CC(C(=O)NCc3nc4cc(F)c(F)cc4[nH]3)(C1)C2)[C@H]1C[C@@H](O)c2cc(Cl)ccc2O1` [Compound 127, (2R,4R)-6-chloro-N-(3-{[(5,6-difluoro-1H-benzimidazol-2-yl)methyl]carbamoyl}bicyclo[1.1.1]pentan-1-yl)-4-hydroxy-3,4-dihydro-2H-1-benzopyran-2-carboxamide] stands 10 to 50 nM. Next, `O=C(NC12CC(NC(=O)[C@H]3C[C@@H](OC(F)(F)F)C3)(C1)C2)[C@H]1C[C@@H](O)c2cc(Cl)ccc2O1` [Compound 128, (2R,4R)-6-chloro-4-hydroxy-N-(3-{[(1s,3S)-3-(trifluoromethoxy)cyclobutane-1-carbonyl]amino}bicyclo[1.1.1]pentan-1-yl)-3,4-dihydro-2H-1-benzopyran-2-carboxamide]: 500 to 2000 nM; `O=C(COc1ccc(Cl)c(F)c1)NC12CC(C(=O)NCC3CCc4cc(Cl)ccc4O3)(C1)C2` (stereo not drawn) [Compound 129, N-[(6-chloro-3,4-dihydro-2H-1-benzopyran-2-yl)methyl]-3-[2-(4-chloro-3-fluorophenoxy)acetamido]bicyclo[1.1.1]pentane-1-carboxamide]: 10 to 50 nM; `O=C(COc1ccc(Cl)c(F)c1)N[C@H]1CC[C@H](NC(=O)C2CC(=O)c3cc(Cl)ccc3O2)CC1` (stereo partly drawn) [Compound 130, 6-chloro-N-{(1r,4r)-4-[2-(4-chloro-3-fluorophenoxy)acetamido]cyclohexyl}-4-oxo-3,4-dihydro-2H-1-benzopyran-2-carboxamide]: 250 to 500 nM. Next, `O=C1C[C@H](C(=O)NC23CC(C(=O)NCc4ccc(C(F)(F)F)cn4)(C2)C3)Oc2ccc(Cl)cc21` [Compound 132, (2R)-6-chloro-4-oxo-N-[3-({[5-(trifluoromethyl)pyridin-2-yl]methyl}carbamoyl)bicyclo[1.1.1]pentan-1-yl]-3,4-dihydro-2H-1-benzopyran-2-carboxamide]: 50 to 250 nM; `O=C1CC(C(=O)NC23CC(C(=O)NCc4ccc(C(F)(F)F)cn4)(C2)C3)Oc2ccc(Cl)cc21` (stereo not drawn) [Compound 134, 6-chloro-4-oxo-N-[3-({[5-(trifluoromethyl)pyridin-2-yl]methyl}carbamoyl)bicyclo[1.1.1]pentan-1-yl]-3,4-dihydro-2H-1-benzopyran-2-carboxamide]: 250 to 500 nM; `O=C1C[C@H](C(=O)NC23CC(C(=O)NCc4nc5cc(F)c(F)cc5[nH]4)(C2)C3)Oc2ccc(Cl)cc21` [Compound 135, (2R)-6-chloro-N-(3-{[(5,6-difluoro-1H-benzimidazol-2-yl)methyl]carbamoyl}bicyclo[1.1.1]pentan-1-yl)-4-oxo-3,4-dihydro-2H-1-benzopyran-2-carboxamide]: 50 to 250 nM.
